This note sets out measurements from patent publication US9376442B2, “Methylpyrrolopyrimidinecarboxamides” (Takeda GmbH, priority 2009, dated 2016).

The structures appear in SMILES notation.

Test [1] addresses T1, PDE4B1 (Homo sapiens, UniProt Q07343).
T1 construct: made in house; host or cells: SF21 insect cells (baculovirus; pCRBac vector), 1000 x g supernatant of homogenate
The test is described as follows: Inhibition of type 4 phosphodiesterase (PDE4) activity, modified SPA test with recombinant PDE4B1 expressed in SF21 insect cells. Type of test: biochemical. As to conditions: recombinant PDE4B1, 0.5 μM cAMP, read-out: PDE4B1 inhibitory values [measured as −log IC50 (mol/l)] (converted). Summed up:
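Modified [3H]cAMP SPA using 1000×g supernatant of SF21 cells expressing recombinant human PDE4B1, in 20 mM Tris pH 7.4, 0.1 mg/ml BSA, 5 mM Mg2+, 0.5 μM cAMP. After 5 min preincubation at 37 °C, 15 min reaction, stopped with SPA beads plus IBMX; IC50 by non-linear regression.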

Test [2] concerns the target T2, PDE5A1 (Homo sapiens, UniProt O76074).
T2 construct: from tissue; host or cells: human platelets from fresh donor blood (10,000 x g supernatant of sonicated lysate)
As to the kind of experiment: Inhibition of type 5 phosphodiesterase (PDE5) activity, modified SPA test with human platelet lysate. Type of test: biochemical. The settings on record: 0.5 μM cGMP, read-out: PDE5A1 inhibitory values [measured as −log IC50 (mol/l)] (converted). An outline of the steps:
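Scintillation proximity assay with [3H]cGMP tracer at 0.5 μM total cGMP, stopped after 15 min with beads containing IBMX. PDE3 and PDE2 activities suppressed with motapizone (1 μM) and a PDE2 inhibitor (10 nM). Human platelet supernatant served as the enzyme, with compound preincubated 5 min at 37° C; IC50 values from concentration-effect curves.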

T1 sequence (Q07343 whole entry): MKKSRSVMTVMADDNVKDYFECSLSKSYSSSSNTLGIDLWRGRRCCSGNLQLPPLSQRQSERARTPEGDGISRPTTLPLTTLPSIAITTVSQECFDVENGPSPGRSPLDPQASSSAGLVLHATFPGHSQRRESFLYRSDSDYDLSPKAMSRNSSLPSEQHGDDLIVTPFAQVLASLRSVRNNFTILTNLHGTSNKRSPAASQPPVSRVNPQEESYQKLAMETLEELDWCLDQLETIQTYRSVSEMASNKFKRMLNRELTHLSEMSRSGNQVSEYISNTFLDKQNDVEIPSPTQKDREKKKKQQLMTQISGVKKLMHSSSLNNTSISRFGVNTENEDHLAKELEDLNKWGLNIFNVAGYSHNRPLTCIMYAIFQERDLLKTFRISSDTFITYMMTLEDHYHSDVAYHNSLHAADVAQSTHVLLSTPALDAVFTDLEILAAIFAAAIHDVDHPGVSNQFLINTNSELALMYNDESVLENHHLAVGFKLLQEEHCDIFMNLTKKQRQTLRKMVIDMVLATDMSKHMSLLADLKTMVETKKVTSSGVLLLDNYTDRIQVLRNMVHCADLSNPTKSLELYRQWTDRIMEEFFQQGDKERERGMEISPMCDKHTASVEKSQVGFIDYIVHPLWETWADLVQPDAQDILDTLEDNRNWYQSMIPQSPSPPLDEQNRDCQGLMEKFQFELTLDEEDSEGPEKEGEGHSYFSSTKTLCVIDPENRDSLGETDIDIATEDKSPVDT

Take `COCC(=O)N[C@H]1CC[C@@H](NC(=O)c2c(C)[nH]c3c(-c4cc(OC)ccc4OCC4CC4)ncnc23)CC1` [Example E74, 4-[2-(Cyclopropylmethoxy)-5-methoxyphenyl]-N-{cis-4-[(methoxyacetyl)amino]cyclohexyl}-6-methyl-5H-pyrrolo[3,2-d]pyrimidine-7-carboxamide]: the IC50 in test [1] is 100 to 1000 nM; in test [2] it was less than 1 nM.

Consider `CCC(=O)N[C@H]1CC[C@H](NC(=O)c2c(C)[nH]c3c(-c4cc(C(F)(F)F)ccc4OCC4CC4)ncnc23)CC1` [Example E94, 4-[2-(cyclopropylmethoxy)-5-(trifluoromethyl)phenyl]-6-methyl-N-[trans-4-(propanoylamino)cyclohexyl]-5H-pyrrolo[3,2-d]pyrimidine-7-carboxamide], for which the IC50 was less than 100 nM in test [1] and less than 1 nM in test [2].

Regarding `Cc1[nH]c2c(-c3cc(C(C)C)ccc3OCC3CC3)ncnc2c1C(=O)N[C@H]1CC[C@H](NC(=O)[C@H](C)O)CC1` [Example F100, 4-[2-(Cyclopropylmethoxy)-5-(propan-2-yl)phenyl]-N-(trans-4-{[(2S)-2-hydroxypropanoyl]amino}cyclohexyl)-6-methyl-5H-pyrrolo[3,2-d]pyrimidine-7-carboxamide], the IC50 in test [1] was 100 to 1000 nM; in test [2] it was less than 1 nM.

With `COCC(=O)N[C@H]1CC[C@H](NC(=O)c2c(C)[nH]c3c(-c4cc(C(F)F)ccc4OCC4CC4)ncnc23)C[C@H]1F` (relative stereo) [Example P201, 4-[2-(Cyclopropylmethoxy)-5-(difluoromethyl)phenyl]-N-{(1S*,3R*,4S*)-3-fluoro-4-[(methoxyacetyl)amino]cyclohexyl}-6-methyl-5H-pyrrolo[3,2-d]pyrimidine-7-carboxamide], the IC50 in test [1] was less than 100 nM; in test [2] it was less than 1 nM.

Consider `CCc1ccc(OCC2CC2)c(-c2ncnc3c(C(=O)N[C@H]4CC[C@H](NC(=O)COC)CC4)c(C)[nH]c23)c1` [Example E150, 4-[2-(Cyclopropylmethoxy)-5-ethylphenyl]-N-{trans-4-[(methoxyacetyl)amino]cyclohexyl}-6-methyl-5H-pyrrolo[3,2-d]pyrimidine-7-carboxamide], for which the IC50 in test [1] is less than 100 nM; in test [2], less than 1 nM.

In the case of `Cc1[nH]c2c(-c3cc(C(F)(F)F)ccc3OCC3CC3)ncnc2c1C(=O)N[C@H]1CC[C@@H](NC(=O)CO)CC1` [Example F61, 4-[2-(Cyclopropylmethoxy)-5-(trifluoromethyl)phenyl]-N-{cis-4-[(hydroxyacetyl)amino]cyclohexyl}-6-methyl-5H-pyrrolo[3,2-d]pyrimidine-7-carboxamide], the IC50 in test [1] is less than 100 nM; in test [2] it was less than 1 nM.

As for `CCc1ccc(OCC2CC2)c(-c2ncnc3c(C(=O)NC4CCN(C(=O)COC)CC4)c(C)[nH]c23)c1` [Example E147, 4-[2-(Cyclopropylmethoxy)-5-ethylphenyl]-N-[1-(methoxyacetyl)piperidin-4-yl]-6-methyl-5H-pyrrolo[3,2-d]pyrimidine-7-carboxamide], the IC50 in test [1] is 100 to 1000 nM; in test [2], less than 1 nM.

Consider `Cc1[nH]c2c(-c3cc(C(C)C)ccc3OCC3CC3)ncnc2c1C(=O)N[C@H]1CC[C@@H](NC(=O)[C@H](C)O)CC1` [Example F101, 4-[2-(Cyclopropylmethoxy)-5-(propan-2-yl)phenyl]-N-(cis-4-{[(2S)-2-hydroxypropanoyl]amino}cyclohexyl)-6-methyl-5H-pyrrolo[3,2-d]pyrimidine-7-carboxamide], for which the IC50 in test [1] is 100 to 1000 nM; in test [2] it was less than 1 nM.

`CCC(=O)N[C@H]1CC[C@H](NC(=O)c2c(C)[nH]c3c(-c4cc(OC)ccc4OCC4CC4)ncnc23)CC1` [Example E70, 4-[2-(Cyclopropylmethoxy)-5-methoxyphenyl]-6-methyl-N-[trans-4-(propionylamino)cyclohexyl]-5H-pyrrolo[3,2-d]pyrimidine-7-carboxamide]: the values for the IC50 in test [1] and in test [2] were 100 to 1000 nM and less than 1 nM, respectively.

For the compound `CCC(=O)N[C@H]1CC[C@H](NC(=O)c2c(C)[nH]c3c(-c4cc(F)ccc4OCC4CC4)ncnc23)CC1` [Example E42, 4-[2-(Cyclopropylmethoxy)-5-fluorophenyl]-6-methyl-N-[trans-4-(propionylamino)cyclohexyl]-5H-pyrrolo[3,2-d]pyrimidine-7-carboxamide], the IC50 in test [1] was less than 100 nM; in test [2], less than 1 nM.

For the compound `CC(=O)N[C@H]1CC[C@H](NC(=O)c2c(C)[nH]c3c(-c4cc(C(C)C)ccc4OCC4CC4)ncnc23)CC1` [Example E159, N-[trans-4-(Acetylamino)cyclohexyl]-4-[2-(cyclopropylmethoxy)-5-(propan-2-yl)phenyl]-6-methyl-5H-pyrrolo[3,2-d]pyrimidine-7-carboxamide], the IC50 in test [1] was 100 to 1000 nM; in test [2], less than 1 nM.

As to `CCC(=O)N1CCC(NC(=O)c2c(C)[nH]c3c(-c4cc(F)ccc4OCC4CC4)ncnc23)CC1` [Example E38, 4-[2-(cyclopropylmethoxy)-5-fluorophenyl]-6-methyl-N-(1-propionylpiperidin-4-yl)-5H-pyrrolo[3,2-d]pyrimidine-7-carboxamide], the IC50 is 100 to 1000 nM in test [1] and less than 1 nM in test [2].

As to `COc1ccc(OCC2CC2)c(-c2ncnc3c(C(=O)NC4CCN(C(=O)CO)CC4)c(C)[nH]c23)c1` [Example F41, 4-[2-(Cyclopropylmethoxy)-5-methoxyphenyl]-N-(1-glycoloylpiperidin-4-yl)-6-methyl-5H-pyrrolo[3,2-d]pyrimidine-7-carboxamide], the figures for the IC50 in test [1] and in test [2] were 100 to 1000 nM and less than 1 nM, respectively.

For the compound `CCC(=O)N[C@H]1CC[C@H](NC(=O)c2c(C)[nH]c3c(-c4cc(C(F)F)ccc4OCC4CC4)ncnc23)C1` [Example P90, 4-[2-(Cyclopropylmethoxy)-5-(difluoromethyl)phenyl]-6-methyl-N-[(1S,3S)-3-(propanoylamino)cyclopentyl]-5H-pyrrolo[3,2-d]pyrimidine-7-carboxamide], the IC50 is less than 100 nM in test [1] and less than 1 nM in test [2].

Turning to `CC(=O)N[C@H]1CC[C@@H](NC(=O)c2c(C)[nH]c3c(-c4cc(F)ccc4OCC4CC4)ncnc23)CC1` [Example E45, N-(cis-4-acetamidocyclohexyl)-4-[2-(cyclopropylmethoxy)-5-fluorophenyl]-6-methyl-5H-pyrrolo[3,2-d]pyrimidine-7-carboxamide], the results for the IC50 in test [1] and in test [2] were 100 to 1000 nM and 1 to 10 nM, respectively.

Consider `Cc1[nH]c2c(-c3cc(F)ccc3OCC3CC3)ncnc2c1C(=O)N[C@H]1CC[C@H](NC(=O)[C@H](C)O)CC1` [Example F26, 4-[2-(Cyclopropylmethoxy)-5-fluorophenyl]-N-(trans-4-{[(2S)-2-hydroxypropanoyl]amino}cyclohexyl)-6-methyl-5H-pyrrolo[3,2-d]pyrimidine-7-carboxamide], for which the IC50 in test [1] was less than 100 nM; in test [2], less than 1 nM.

Take `CCc1ccc(OCC2CC2)c(-c2ncnc3c(C(=O)N[C@@H]4CN(C(C)=O)C[C@H]4O)c(C)[nH]c23)c1` (relative stereo) [Example E154, N-[(3R*,4R*)-1-Acetyl-4-hydroxypyrrolidin-3-yl]-4-[2-(cyclopropylmethoxy)-5-ethylphenyl]-6-methyl-5H-pyrrolo[3,2-d]pyrimidine-7-carboxamide]: the IC50 in test [1] was 100 to 1000 nM; in test [2] it was 1 to 10 nM.

On to `COCC(=O)N[C@H]1CC[C@H](NC(=O)c2c(C)[nH]c3c(-c4cc(C(F)F)ccc4OCC4CC4)ncnc23)[C@@H](C)C1` (relative stereo) [Example P141, 4-[2-(Cyclopropylmethoxy)-5-(difluoromethyl)phenyl]-N-{(1S*,2S*,4S*)-4-[(methoxyacetyl)amino]-2-methylcyclohexyl}-6-methyl-5H-pyrrolo[3,2-d]pyrimidine-7-carboxamide], for which the IC50 in test [1] was less than 100 nM; in test [2], less than 1 nM.

Regarding `COc1ccc(OCC2CC2)c(-c2ncnc3c(C(=O)NC4CCN(C(C)=O)CC4)c(C)[nH]c23)c1` [Example E66, N-(1-acetylpiperidin-4-yl)-4-[2-(cyclopropylmethoxy)-5-methoxyphenyl]-6-methyl-5H-pyrrolo[3,2-d]pyrimidine-7-carboxamide], the IC50 in test [1] is 100 to 1000 nM; in test [2], less than 1 nM.

`COc1ccc(OCC2CC2)c(-c2ncnc3c(C(=O)N[C@H]4CC[C@H](NC(C)=O)CC4)c(C)[nH]c23)c1` [Example E69, N-(trans-4-acetamidocyclohexyl)-4-[2-(cyclopropylmethoxy)-5-methoxyphenyl]-6-methyl-5H-pyrrolo[3,2-d]pyrimidine-7-carboxamide]: the IC50 was 100 to 1000 nM in test [1] and less than 1 nM in test [2].

As for `CCC(=O)N[C@H]1CC[C@H](NC(=O)c2c(C)[nH]c3c(-c4cc(C(F)F)ccc4OCC4CC4)ncnc23)CC1` [Example P7, 4-[2-(Cyclopropylmethoxy)-5-(difluoromethyl)phenyl]-6-methyl-N-[trans-4-(propanoylamino)cyclohexyl]-5^H-pyrrolo[3,2-d]pyrimidine-7-carboxamide], the IC50 in test [1] is less than 100 nM; in test [2], less than 1 nM.

Regarding `Cc1ccc(OCC2CC2)c(-c2ncnc3c(C(=O)N[C@H]4CCC[C@@H]4O)c(C)[nH]c23)c1` [Example E176, 4-[2-(Cyclopropylmethoxy)-5-methylphenyl]-N-[(1S,2S)-2-hydroxycyclopentyl]-6-methyl-5H-pyrrolo[3,2-d]pyrimidine-7-carboxamide], the figures for the IC50 in test [1] and in test [2] were less than 100 nM and less than 1 nM, respectively.
